Tests used:
[1] = molecular target: human recombinant LPA1 expressed in CHO cells (Homo sapiens (Human), UniProt Q92633); assay: LPA1 antagonist FLIPR calcium assay in CHO-hLPA1 cells; type: cell-based; conditions: range of activity; CHO-hLPA1, LPA EC80, Ca2+ mobilization; read-out: LPA1 IC50
Summary of the method: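 CHO cells expressing human LPA1 loaded with Cal-520 AM (5 μM, with 2.5 mM probenecid) 30 min at 37 °C. Baseline-subtracted peak fluorescence on FLIPR converted to % inhibition; pIC50 from four-parameter logistic fit.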

BSEP = BSEP (Homo sapiens (Human), UniProt O95342); assay: BSEP inhibition: biliary clearance of Taurocolic Acid in sandwich-cultured human hepatocytes; type: in vitro ADME; conditions: sandwich-cultured cryopreserved human hepatocytes, probe Taurocolic Acid (TCA); 50 μM test compound, 10 μM TCA, human hepatocytes sandwich configuration
Summary of the method: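 Cryopreserved human hepatocytes were sandwich-cultured between collagen layers for 5 days, then incubated for 10 min at 37 °C in HBSS+ with 10 μM taurocholic acid, with or without 50 μM test compound. Bile content was released with Ca2+/Mg2+-free HBSS and quantified by HPLC-MS/MS. Inhibition is the percent reduction in TCA biliary clearance.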

[2] = Permeability on Caco-2 cells monolayers; type: in vitro ADME; conditions: human, with Elacridar 10 µM (PgP inhibitor), Papp A>B with PgP inhibitor Elacridar, 10 μM compound, read-out: Passive Permeability
Description: Even more advantageously, the compounds of formula (I) of the present invention are also endowed with a good permeability profile that, in its turn, can ensure a suitable bioavailability for an oral administration. The permeability was assessed in human Caco 2 cell line, an in vitro model that mimic human gastrointestinal barrier and so useful to predic oral absorption.
The permeability of the compounds of the present invention was evaluated performing the assay on Caco-2 cells monolayers (human colon adenocarcinoma immortalized cell) by measuring the transport of compound (absorption and secretion) in both directions: apical to basolateral direction (A>B) and basolateral to apical (B>A) with and without PgP inhibitor (Elacridar).
The cells, purched from ReadyCell in 96 well format (Cod. KRECE-CCR50), were cultured by the supplier for 21 day on transwell supports in DMEM 1 g/L glucose culture medium supplemented with Fetal Bovin Sierum (10%), Glutamine 200 mM (1%) and Penicillin 10000 U/ml-10 mg/ml Streptomycin (1%).
On day 21 of colture, cell monolayers integrity was verified by measuring the trans-epithelial electric resistance (TEER) using the EVOM equipment (Endohm, WPI, Germany) and studying the apparent permeability (Papp) of reference compounds (Sulpiride and Metoprolol). Furthermore, as a control, the Talinolol 10 uM (Pgp efflux substrate) with and without Elacridar in both directions was used.
The sample solution was prepared dissolving test compound in DMSO at the concentration of 10 mM and then diluted in the Assay Buffer (Hank's Balance Salt Solution) warmed at 37° C. before use, to give the 10 μM Compound working solution with and without 10 μM Elacridar. These working solutions were added to donor compartment (apical for A>B direction and basolateral for B>A direction) and Assay Buffer (Hank's Balance Salt Solution) to the receiver compartment (basolateral for A>B direction and apical for B>A direction). The plate was incubated at 37° C. for 120 min, all incubation were conducted in triplicates. At the end of incubation, samples from donor and receiver compartments were collected for HPLC-MS/MS analyses.
The permeability coefficients (Papp) in both directions: apical to basolateral (A>B) and basolateral to apical (B>A) with and without PgP inhibitor (Elacridar) was calculated in nm/sec, using the following equation:
[formula] • where: • Cr=measured concentration in the receiver well at the time t (expressed as IS ratio) • Vr=volume of the receiver well (ml) • t=time (sec) • A=membrane surface area (cm^2) • C0=initial donor concentration • Passive Papp is considered Papp A>B with PgP inhibitor Elacridar.

human recombinant LPA1 expressed in CHO cells, sequence (Q92633 whole entry): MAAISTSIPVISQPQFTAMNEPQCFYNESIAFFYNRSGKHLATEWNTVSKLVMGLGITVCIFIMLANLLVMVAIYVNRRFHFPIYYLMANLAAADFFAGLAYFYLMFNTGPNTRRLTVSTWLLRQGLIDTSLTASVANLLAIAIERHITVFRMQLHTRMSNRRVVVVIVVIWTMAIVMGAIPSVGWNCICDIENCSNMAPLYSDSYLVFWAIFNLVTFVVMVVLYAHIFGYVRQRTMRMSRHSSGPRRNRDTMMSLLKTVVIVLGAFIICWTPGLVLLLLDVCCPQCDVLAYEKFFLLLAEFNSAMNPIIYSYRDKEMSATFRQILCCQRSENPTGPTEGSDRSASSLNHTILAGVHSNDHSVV
BSEP, sequence (O95342 whole entry): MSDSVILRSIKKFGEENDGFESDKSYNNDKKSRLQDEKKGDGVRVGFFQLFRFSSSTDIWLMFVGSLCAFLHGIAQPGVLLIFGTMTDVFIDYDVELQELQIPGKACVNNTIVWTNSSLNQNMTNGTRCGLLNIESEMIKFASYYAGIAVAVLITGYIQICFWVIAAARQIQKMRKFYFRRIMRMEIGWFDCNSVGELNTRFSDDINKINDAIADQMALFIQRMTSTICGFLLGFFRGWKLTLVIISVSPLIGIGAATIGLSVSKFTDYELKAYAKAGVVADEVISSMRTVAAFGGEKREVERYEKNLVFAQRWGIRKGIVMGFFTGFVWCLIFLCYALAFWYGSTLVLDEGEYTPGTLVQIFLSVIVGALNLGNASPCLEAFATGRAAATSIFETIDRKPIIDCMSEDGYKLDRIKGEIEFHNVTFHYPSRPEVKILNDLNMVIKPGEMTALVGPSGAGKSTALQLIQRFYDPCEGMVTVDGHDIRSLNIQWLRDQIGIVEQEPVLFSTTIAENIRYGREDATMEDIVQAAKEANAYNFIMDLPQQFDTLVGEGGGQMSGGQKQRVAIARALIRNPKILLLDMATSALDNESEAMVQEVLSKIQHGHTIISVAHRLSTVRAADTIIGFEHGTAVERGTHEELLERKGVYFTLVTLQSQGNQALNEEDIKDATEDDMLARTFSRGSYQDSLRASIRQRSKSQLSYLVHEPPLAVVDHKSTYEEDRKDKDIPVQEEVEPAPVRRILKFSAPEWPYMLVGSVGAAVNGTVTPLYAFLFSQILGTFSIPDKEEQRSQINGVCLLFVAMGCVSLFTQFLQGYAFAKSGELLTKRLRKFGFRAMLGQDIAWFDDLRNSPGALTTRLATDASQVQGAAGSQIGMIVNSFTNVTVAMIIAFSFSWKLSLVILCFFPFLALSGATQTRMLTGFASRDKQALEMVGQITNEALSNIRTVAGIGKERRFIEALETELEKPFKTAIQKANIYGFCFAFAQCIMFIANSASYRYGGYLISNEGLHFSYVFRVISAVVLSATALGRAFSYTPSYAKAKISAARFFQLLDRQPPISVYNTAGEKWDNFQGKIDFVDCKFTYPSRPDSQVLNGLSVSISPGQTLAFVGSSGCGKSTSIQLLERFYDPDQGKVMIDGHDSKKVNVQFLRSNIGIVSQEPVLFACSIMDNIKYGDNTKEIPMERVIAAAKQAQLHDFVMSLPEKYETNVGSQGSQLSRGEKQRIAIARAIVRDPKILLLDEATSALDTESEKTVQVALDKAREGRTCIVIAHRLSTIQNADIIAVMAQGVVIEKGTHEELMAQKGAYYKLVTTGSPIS

Compound | IC50 [1] [nM] | Papp at 120 min, 10 µM [2] [×10⁻⁶ cm/s] | inhibition at 10 min, 50 μM (BSEP) [%]
Cc1nc(-c2onc(C)c2NC(=O)O[C@H](C)C2CCCC2)ccc1NC(=O)[C@H]1CCCC[C@@H]1C(=O)O [Example 26, (1S,2S)-2-((6-(4-((((R)-1-cyclopentylethoxy)carbonyl)amino)-3-methylisoxazol-5-y1)-2-methylpyridin-3-yl)carbamoy1)cyclohexane-1-carboxylic acid] | < 50 | ≥ 1.5 | ≤ 50
Cc1nc(-c2nnn(C)c2NC(=O)O[C@H](C)C2CCCC2)ccc1NC(=O)[C@H]1CCCC[C@@H]1C(=O)O [Example 46, (1S,2S)-2-((6-(5-((((R)-1-cyclopentylethoxy)carbonyl)amino)-1-methyl-1H-1,2,3-triazol-4-yl)-2-methylpyridin-3-yl)carbamoyl)cyclohexane-1-carboxylic acid] | 50 to 250 | ≥ 1.5 | ≤ 50
Cc1nc(-c2cnn(C)c2NC(=O)O[C@H](C)c2ccccc2F)ccc1NC(=O)[C@H]1CCCC[C@@H]1C(=O)O [Example 50, (1S,2S)-2-((6-(5-((((R)-1-(2-fluorophenyl)ethoxy)carbonyl)amino)-1-methyl-1H-pyrazol-4-yl)-2-methylpyridin-3-yl)carbamoyl)cyclohexane-1-carboxylic acid] | 50 to 250 | ≥ 1.5 | ≤ 50

More lines, main results first:

IC50 [1] [nM] | Papp at 120 min, 10 µM [2] [×10⁻⁶ cm/s] | Compound | inhibition at 10 min, 50 μM (BSEP) [%]
< 50 | ≥ 1.5 | Cc1noc(-c2ccc(NC(=O)[C@H]3CCCC[C@@H]3C(=O)O)cn2)c1NC(=O)O[C@H](C)c1ccccc1F [Example 34, (1S,2S)-2-((6-(4-((((R)-1-(2-fluorophenyl)ethoxy)carbonyl)amino)-3-methylisoxazol-5-yl)pyridin-3-yl)carbamoyl)cyclohexane-1-carboxylic acid] | ≤ 50
50 to 250 | ≥ 1.5 | Cc1noc(-c2ccc(NC(=O)[C@H]3CCCC[C@@H]3C(=O)O)cn2)c1NC(=O)OCc1ccccc1Cl [Example 35, (1S,2S)-2-((6-(4-((((2-chlorobenzyl)oxy)carbonyl)amino)-3-methylisoxazol-5-yl)pyridin-3-yl)carbamoyl)cyclohexane-1-carboxylic acid] | ≤ 50
50 to 250 | ≥ 1.5 | Cc1noc(-c2ccc(NC(=O)[C@H]3CCCC[C@@H]3C(=O)O)cn2)c1NC(=O)O[C@H](C)c1ccccc1C(F)(F)F [Example 36, (1S,2S)-2-((6-(3-methyl-4-((((R)-1-(2-(trifluoromethyl)phenyl)ethoxy)carbonyl)amino)isoxazol-5-yl)pyridin-3-yl)carbamoyl)cyclohexane-1-carboxylic acid] | ≤ 50
50 to 250 | ≥ 1.5 | COc1ccccc1[C@@H](C)OC(=O)Nc1c(C)noc1-c1ccc(NC(=O)[C@H]2CCCC[C@@H]2C(=O)O)c(C)n1 [Example 38, (1S,2S)-2-((6-(4-((((R)-1-(2-methoxyphenyl)ethoxy)carbonyl)amino)-3-methylisoxazol-5-yl)-2-methylpyridin-3-yl)carbamoyl)cyclohexane-1-carboxylic acid] | ≤ 50

Source: patent publication US12454530B2, “Amido cyclohexane acid derivatives as LPA receptor inhibitors” (CHIESI FARMACEUTICI S.P.A., priority 2020, dated 2025)
